Assay results as given in DBAASP.
≈ marks a conversion by molar mass, not a printed value. Blank lines part the entries; values can stand above or below the compound they belong to.

Key:
Test in all cases: ≥ marks a high value that may be exact or a test limit, other limits are often not marked, values filed in µg/mL are converted to µM
Bacillus subtilis = tested on: Bacillus subtilis
[1] = tested on: Escherichia coli ATCC 8739
[2] = tested on: Staphylococcus epidermidis
Pseudomonas aeruginosa = tested on: Pseudomonas aeruginosa
[3] = tested on: Escherichia coli ATCC 25922
[4] = tested on: Pseudomonas aeruginosa ATCC 27853
Klebsiella pneumoniae = tested on: Klebsiella pneumoniae
[5] = tested on: Staphylococcus aureus ATCC 6538
[6] = tested on: Staphylococcus aureus ATCC 43300
[7] = tested on: Escherichia coli ATCC 25726
[8] = tested on: Staphylococcus aureus ATCC 25923
[9] = tested on: Candida albicans ATCC 90028
[10] = tested on: Staphylococcus epidermidis KCTC 1917
[11] = tested on: Staphylococcus aureus KCTC 1621
[12] = tested on: Bacillus subtilis KCTC 3068
[13] = tested on: Salmonella typhimurium KCTC 1926
[14] = tested on: Escherichia coli KCTC 1682
[15] = tested on: Pseudomonas aeruginosa KCTC 1637

MIC [1]: 29.6 µM (≈ 64 µg/mL)
Structure (SMILES): CC[C@H](C)[C@H](NC(=O)[C@H](CCCCN)NC(=O)[C@H](CO)NC(=O)[C@H](C)NC(=O)[C@@H](NC(=O)[C@H](CCCN=C(N)N)NC(=O)[C@H](CC(=O)O)NC(=O)[C@H](CC(C)C)NC(=O)[C@H](CC(C)C)NC(=O)[C@H](CCCCN)NC(=O)[C@H](CC(C)C)NC(=O)[C@@H](NC(=O)[C@@H](NC(=O)[C@H](CC(N)=O)NC(=O)[C@H](CC(N)=O)NC(=O)[C@@H](NC(=O)[C@H](CCCCN)NC(=O)[C@H](CCCCN)NC(=O)[C@@H]1CCCN1)[C@@H](C)CC)[C@@H](C)O)[C@@H](C)CC)C(C)C)C(=O)O [PKKINNTILKLLDRVASKI]

MIC [1]: ≥ 111 µM
MIC [8]: 111 µM (≈ 256 µg/mL)
Structure (SMILES): CC[C@H](C)[C@H](NC(=O)[C@H](CCCCN)NC(=O)[C@H](CO)NC(=O)[C@H](CO)NC(=O)[C@H](CC(C)C)NC(=O)[C@H](CCCCN)NC(=O)[C@H](CCCCN)NC(=O)[C@H](CC(C)C)NC(=O)[C@H](CC(C)C)NC(=O)[C@H](CCCCN)NC(=O)[C@H](CCC(N)=O)NC(=O)[C@H](Cc1ccc(O)cc1)NC(=O)[C@H](Cc1ccccc1)NC(=O)[C@H](CCC(N)=O)NC(=O)[C@H](CO)NC(=O)[C@H](CCC(=O)O)NC(=O)[C@H](CCCN=C(N)N)NC(=O)[C@H](CC(N)=O)NC(=O)[C@@H]1CCCN1)C(=O)O [PNRESQFYQKLLKKLSSKI]

MIC [7]: ≥ 500 µM
MIC [8]: 250 µM (≈ 355 µg/mL)
Structure (SMILES): CC[C@H](C)[C@@H]1NC(=O)[C@@H]2CCCN2C(=O)[C@H](CC(C)C)NC(=O)[C@@H]2CCCN2C(=O)[C@H]([C@@H](C)CC)NC(=O)[C@H](Cc2c[nH]c3ccccc23)NC(=O)[C@H](CO)NC(=O)[C@@H](NC(=O)[C@@H](NC(=O)[C@@H](N)CCCN=C(N)N)C(C)C)CSSC[C@@H](C(=O)N[C@@H](Cc2cnc[nH]2)C(N)=O)NC1=O [RVCSWIPLPICH]

MIC [10]: 4 µM (≈ 7.93 µg/mL)
MIC [11]: 2 µM (≈ 3.97 µg/mL)
MIC [12]: 8 µM (≈ 15.9 µg/mL)
MIC [13]: 2 µM (≈ 3.97 µg/mL)
MIC [14]: 4 µM (≈ 7.93 µg/mL)
MIC [15]: 16 µM (≈ 31.7 µg/mL)
Structure (SMILES): CC(C)C[C@H](NC(=O)[C@H](Cc1c[nH]c2ccccc12)NC(=O)[C@H](CCCN=C(N)N)NC(=O)[C@H](CCCCN)NC(=O)[C@H](Cc1c[nH]c2ccccc12)NC(=O)[C@H](CCCN=C(N)N)NC(=O)[C@H](CCC(N)=O)NC(=O)[C@@H](NC(=O)[C@H](Cc1c[nH]c2ccccc12)NC(=O)[C@H](CCCN=C(N)N)NC(=O)[C@H](CCCCN)NC(=O)[C@@H](N)Cc1c[nH]c2ccccc12)C(C)C)C(=O)N[C@@H](CCCN=C(N)N)C(N)=O [WKRWVQRWKRWLR]

Continued, compound first:

Structure (SMILES): CC(C)C[C@H](NC(=O)[C@H](CCCCN)NC(=O)[C@H](Cc1c[nH]c2ccccc12)NC(=O)[C@H](C)N)C(=O)N[C@@H](Cc1ccccc1)C(=O)N[C@@H](CC(=O)O)C(=O)N[C@@H](CC(=O)O)C(=O)NCC(=O)N[C@H](C(=O)O)C(C)C [AWKLFDDGV]
MIC (Bacillus subtilis): 30 µM (≈ 31.5 µg/mL)
MIC [1]: 30 µM (≈ 31.5 µg/mL)
MIC [2]: ≥ 60 µM
MIC (Pseudomonas aeruginosa): 30 µM (≈ 31.5 µg/mL)

Structure (SMILES): CC[C@H](C)[C@H](NC(=O)[C@H](CCCCN)NC(=O)[C@H](CCCN=C(N)N)NC(=O)CNC(=O)[C@H](CC(C)C)NC(=O)[C@H](CCCN=C(N)N)NC(=O)[C@H](CCCN=C(N)N)NC(=O)[C@H](CC(C)C)NC(=O)CNC(=O)CNC(C)=O)C(=O)N[C@@H](CC(C)C)C(=O)N[C@@H](CCCN=C(N)N)C(=O)N[C@@H](C)C(=O)N[C@H](C(=O)N[C@@H](CCCCN)C(=O)N[C@@H](CCCCN)C(=O)N[C@@H](Cc1ccc(O)cc1)C(=O)NCC(N)=O)C(C)C [GGLRRLGRKILRAVKKYG]
MIC [3]: 8.84 µM (≈ 18.4 µg/mL)
MIC [4]: 8.84 µM (≈ 18.4 µg/mL)
MIC (Klebsiella pneumoniae): 8.84 µM (≈ 18.4 µg/mL)
MIC [1]: 4.42 µM (≈ 9.2 µg/mL)

Structure (SMILES): CC[C@H](C)[C@H](NC(=O)[C@H](CCCCN)NC(=O)[C@H](CC(C)C)NC(=O)CNC(=O)[C@H](CC(C)C)NC(=O)[C@H](CO)NC(=O)[C@H](CCCN=C(N)N)NC(=O)[C@H](CC(C)C)NC(=O)CNC(=O)CNC(C)=O)C(=O)N[C@@H](CC(C)C)C(=O)N[C@@H](CC(C)C)C(=O)N[C@@H](C)C(=O)N[C@@H](Cc1c[nH]c2ccccc12)C(=O)N[C@@H](CCCCN)C(=O)N[C@@H](CCCCN)C(=O)N[C@@H](Cc1ccc(O)cc1)C(=O)NCC(N)=O [GGLRSLGLKILLAWKKYG]
MIC [3]: > 100 µM
MIC [4]: > 100 µM
MIC (Klebsiella pneumoniae): > 100 µM
MIC [1]: ≥ 100 µM

Structure (SMILES): CC[C@H](C)[C@H](NC(=O)[C@H](CCCCN)NC(=O)[C@@H](NC(=O)[C@H](CO)NC(=O)[C@H](CC(N)=O)NC(=O)[C@H](Cc1c[nH]c2ccccc12)NC(=O)[C@H](CC(C)C)NC(=O)CN)[C@@H](C)CC)C(=O)N[C@@H](C)C(=O)NCC(=O)N[C@@H](CCCCN)C(=O)N[C@@H](CCCCN)C(=O)N[C@@H](CC(C)C)C(=O)N[C@@H](Cc1ccccc1)C(=O)N[C@H](C(=O)N[C@@H](CC(N)=O)C(=O)N[C@H](C(=O)N[C@@H](CC(C)C)C(=O)N[C@@H](CC(=O)O)C(=O)N[C@@H](CCCCN)C(=O)N[C@H](C(=O)N[C@@H](CCCN=C(N)N)C(=O)N[C@H]1CSSC[C@@H](C(=O)N[C@@H](CCCCN)C(=O)N[C@H](C(=O)N[C@@H](CO)C(=O)N2CCC[C@H]2C(=O)N[C@@H](CC(=O)O)C(=O)N[C@H](C(=O)N[C@@H](CCC(=O)O)C(=O)O)C(C)C)[C@@H](C)O)NC(=O)CNC(=O)CNC(=O)[C@H](C)NC(=O)[C@H](C(C)C)NC(=O)[C@H](CCCCN)NC1=O)[C@@H](C)CC)C(C)C)C(C)C [GLWNSIKIAGKKLFVNVLDKIRCKVAGGCKTSPDVE]
MIC [5]: 6.3 µM (≈ 24.5 µg/mL)
MIC [1]: 6.3 µM (≈ 24.5 µg/mL)
MIC [6]: 100 µM (≈ 389 µg/mL)

Structure (SMILES): CC[C@H](C)[C@H](NC(=O)[C@H](CCCCN)NC(=O)[C@@H](NC(=O)[C@@H](NC(=O)[C@H](CCCCN)NC(=O)CNC(=O)[C@H](CC(C)C)NC(=O)[C@@H](NC(=O)[C@H](CO)NC(=O)CNC(=O)[C@H](C)NC(=O)[C@H](CCCCN)NC(=O)[C@H](CO)NC(=O)[C@H](C)NC(=O)[C@H](CCSC)NC(=O)CN)C(C)C)[C@@H](C)CC)[C@@H](C)O)C(=O)N[C@@H](C)C(=O)N[C@@H](CC(C)C)C(=O)NCC(=O)N[C@@H](C)C(=O)N[C@@H](CC(C)C)C(N)=O [GMASKAGSVLGKITKIALGAL]
MIC [7]: 12.5 µM (≈ 24.8 µg/mL)
MIC [8]: 100 µM (≈ 199 µg/mL)
MIC [9]: ≥ 50 µM

Structure (SMILES): CC(C)C[C@H](NC(=O)[C@H](Cc1ccc(O)cc1)NC(=O)[C@H](Cc1cnc[nH]1)NC(=O)[C@@H](NC(=O)[C@H](CC(C)C)NC(=O)[C@H](C)NC(=O)[C@H](C)NC(=O)[C@H](CCCCN)NC(=O)CNC(=O)[C@@H](NC(=O)[C@H](Cc1cnc[nH]1)NC(=O)[C@H](CCCCN)NC(=O)[C@H](C)NC(=O)[C@@H](NC(=O)[C@H](Cc1cnc[nH]1)NC(=O)[C@H](C)NC(=O)[C@H](C)NC(=O)[C@H](CCCCN)NC(=O)[C@H](CCCCN)NC(=O)[C@H](Cc1ccccc1)NC(=O)[C@H](Cc1ccccc1)NC(=O)[C@H](CO)NC(=O)CNC(=O)[C@H](Cc1c[nH]c2ccccc12)NC(=O)CN)C(C)C)C(C)C)[C@@H](C)O)C(=O)O [GWGSFFKKAAHVAKHVGKAALTHYL]
MIC [10]: 1 µM (≈ 2.73 µg/mL)
MIC [11]: 1 µM (≈ 2.73 µg/mL)
MIC [12]: 4 µM (≈ 10.9 µg/mL)
MIC [13]: 2 µM (≈ 5.45 µg/mL)
MIC [14]: 4 µM (≈ 10.9 µg/mL)
MIC [15]: 2 µM (≈ 5.45 µg/mL)

Structure (SMILES): CC[C@H](C)[C@H](NC(=O)[C@H](CCCCN)NC(=O)[C@H](Cc1c[nH]c2ccccc12)NC(=O)[C@H](Cc1ccccc1)NC(=O)[C@H](CC(C)C)NC(=O)[C@H](CCCCN)NC(=O)[C@H](CCCCN)NC(=O)[C@@H](N)CCCCN)C(=O)N1CCC[C@H]1C(=O)N[C@@H](CCCCN)C(=O)N[C@@H](Cc1ccccc1)C(=O)N[C@@H](CC(C)C)C(=O)N[C@@H](Cc1cnc[nH]1)C(=O)N[C@@H](CC(C)C)C(=O)N[C@@H](C)C(=O)N[C@@H](CCCCN)C(=O)N[C@@H](CCCCN)C(=O)N[C@@H](Cc1ccccc1)C(N)=O [KKKLFWKIPKFLHLAKKF]
MIC [10]: 1 µM (≈ 2.3 µg/mL)
MIC [11]: 2 µM (≈ 4.6 µg/mL)
MIC [12]: 1 µM (≈ 2.3 µg/mL)
MIC [13]: 1 µM (≈ 2.3 µg/mL)
MIC [14]: 2 µM (≈ 4.6 µg/mL)
MIC [15]: 2 µM (≈ 4.6 µg/mL)

Structure (SMILES): CC[C@H](C)[C@H](NC(=O)[C@H](C)NC(=O)[C@@H](NC(=O)[C@H](C)NC(=O)CNC(=O)[C@H](CCCCN)NC(=O)[C@@H](NC(=O)[C@H](C)NC(=O)CNC(=O)[C@H](CCCCN)NC(=O)[C@H](CC(C)C)NC(=O)[C@@H](NC(=O)[C@H](CCCCN)NC(=O)[C@H](CCCCN)NC(=O)[C@H](CC(C)C)NC(=O)[C@@H](NC(=O)[C@H](CC(=O)O)NC(=O)[C@H](CCCCN)NC(=O)[C@@H](NC(=O)[C@H](CCC(=O)O)NC(=O)[C@@H]1CCCN1C(=O)[C@H](CO)NC(=O)[C@H](CC(C)C)NC(=O)[C@H](CCCCN)NC(=O)[C@@H](N)CC(C)C)[C@@H](C)O)[C@@H](C)O)C(C)C)[C@@H](C)CC)[C@@H](C)CC)C(=O)N[C@@H](C)C(=O)N[C@@H](CO)C(=O)N[C@@H](CC(C)C)C(=O)N[C@@H](C)C(N)=O [LKLSPETKDTLKKVLKGAIKGAIAIASLA]
MIC [7]: ≥ 40 µM
MIC [8]: 5 µM (≈ 14.9 µg/mL)
